Data taken from paper PMC6749236, “Synthesis of Novel 2-(Het)arylpyrrolidine Derivatives and Evaluation of Their Anticancer and Anti-Biofilm Activity” (Molecules, 2019).
“And” between values parts separate entries of the source, which are not always exact repeats. Identical values can stand only once. Like-named read-outs stand apart in the source and are kept apart here. Marks after values point to notes of the source that are not given here.

Columns and labels:
M-Hela = experiment: Cytotoxicity assay (Cytell Cell Imaging, DAPI/propidium iodide), cancer cell line; type: cell-based; conditions: Homo sapiens, read-out: IC50 Cancer Cell Line M-Hela
Chang liver cell line = experiment: Cytotoxicity assay (Cytell Cell Imaging), normal cell line; type: cell-based; conditions: Homo sapiens, read-out: IC50 Normal Cell Line Chang Liver
P388 murine leukemia = experiment: In vivo anti-tumor activity, i.p. implanted leukemia; set-up: species or system BDF1 hybrid male mice; conditions: for ILS / MST ± SD: P388; for Survival: day 60; for Survivors/Total: survivors on day 60
Procedure: Animals. In vivo experiments were performed using the BDF1 hybrid male mice of 22–24 g weight. The experimental animals were caged in a standard vivarium in 12 h light conditions with free access to food and water. All manipulations with the animals were performed in accordance with the solutions of the Commission on Bioethics of the Institute of Problems of Chemical Physics, Russian Academy of Sciences (IPCP RAS).
Anti-tumor activity. The tumors were transplanted intraperitoneally (i.p.) in accordance with a standard procedure inoculum: 10^6 tumor cells in isotonic solution of NaCl, V = 0.2 cm^3 (leukemia P388). Original compounds were injected intraperitoneally as aqueous solution. Doses from 18 to 83 mg/kg/day and the mode of administration on days 1, 5, and 9 after transplantation were used. In each experiment, a single group of tumor-bearing animals not injected with the compounds served as the control group. Each group consisted of six mice. The animals were observed daily for survival for a minimum of 60 days. The efficacy of the therapy against leukemia (defined as increase in lifespan—ILS) was assessed as the percentage of the median survival time (MST) of the treated group (t) to that of the control group (c): ILS(%) = (MSTt/MSTc) × 100.
Statistics. The experiments were carried out in triplicate. The data are presented in the form X ± SD (mean ± standard deviation). The significance of the differences between the groups was assessed using Student’s t-test. Values of p < 0.05 were considered statistically significant. The data were processed statistically using GraphPad Prism.

[1] = Water solubility (selection for parenteral administration); type: physicochemical
[2] = tested on: Escherichia coli MG1655 (pRecA-lux); experiment: Genotoxicity, bacterial lux-biosensor; type: cell-based
Excerpt: (§1) E. coli MG1655 (pRecA-lux) was used for the evaluation of the genotoxicity of the synthesized compounds. The biosensor with the PrecA promotor fixes the presence of the factors causing damage of DNA in a cell. The biosensor E. coli MG1655 (pSoxS-lux) was used for the evaluation of prooxidant activity. The biosensor with the PsoxS promoter fixes the production of superoxide anion and NO [75]. Bioluminescent strains were obtained by the transformation of E. coli MG1655 by hybrid plasmids pRecA-lux, pSoxS-lux. The gene cassette luxCDABE Photorhabdus luminescens under the control PrecA promoters was used in this biosensor. This plasmid was created on the basis of pBR322 and contained a selective marker of ampicillin resistance (Amp gene). The strains were kindly furnished by Manukhov I.V., Federal State Unitary Enterprise “GosNIIGenetika”).
(§2) The bacterial strains Acinetobacter calcoaceticus VKPM B-10353, E. coli MG1655 (pRecA-lux), and E. coli MG1655 (pSoxS-lux) were cultivated in Luria–Bertani (LB) medium under constant shaking to early exponential phase at 37 °C. Cells were used immediately for stress induction tests. One hundred micrograms of ampicillin per milliliter were added into LB medium at cultivation of E. coli MG1655 (pRecA-lux) and E. coli MG1655 (pSoxS-lux). Strain V. aquamarinus DSM 26054 was grown in LB medium supplemented with 3% NaCl.
(§3) Biosensors assay procedure. The detailed protocol of toxicity testing by means of a bacterial lux-biosensors is described in the article.
(§4) Calculation. The criterion of toxic influence was bioluminescence intensity change of the test object in the researched sample in comparison with the control sample.
(§5) The induction factor (I) was defined as the relation of luminescence intensity of a lux-biosensor suspension containing tested sample (Lc) to the luminescence intensity of a lux-biosensor control suspension (Lk): I = Lc/Lk.
If at significant differences from control induction factor values were ≤2, the detected genotoxic effect was evaluated as “weak”, if they were in the range from 2 to 10 as “medium”, and above 10 as “strong”. All the experiments were carried out three times independently.
(§6) Difference reliability of bioluminescence in experiment from control value was estimated by t-criterion with the help of Excel software. The conclusions about sample toxicity were made at p < 0.05.

[3] = tested on: E. coli MG1655 (pSoxS-lux); experiment: Prooxidant activity, bacterial lux-biosensor; type: cell-based, Escherichia coli
Excerpt: as §1, §2, §3, §4, §5, §6

[4] = tested on: Acinetobacter calcoaceticus VKPM B-10353; experiment: Biofilm formation, crystal violet assay; type: cell-based; conditions: A. calcoaceticus VKPM B-10353, control = 100%
Procedure: (§7) Bacterial strains and cultivation conditions. For the detection of biofilms, formation strains Vibrio aquamarinus DSM 26054 and Acinetobacter calcoaceticus VKPM B-10353 were used. These strains form biofilms, making them useful for studying biofilms.
as §2
(§8) The test compounds were dissolved in DMSO to the concentration of 1 × 10^−2 M. Then, they were diluted with ethanol. The control solutions were analogous dilutions of DMSO in ethanol. The tested compounds were also compared with the standard antibiotic azithromycin. Azithromycin was dissolved in DMSO to the concentration of 5 × 10^−3 M and then diluted with deionized water.
(§9) Test system for evaluation of biofilms production. To quantify the formation of biofilms, the crystal violet assay was used, with some modifications. The necessary concentrations of the test compounds were prepared as described above.
(§10) V. aquamarinus DSM 26054 was cultivated for 24 h in LB medium supplemented with 3% NaCl in the Innova 40R shaker incubator (New Brunswick Scientific, USA) at 25 °C and 200 rpm. A. calcoaceticus VKPM B-10353 was cultivated for 24 h in LB medium in the Innova 40R shaker incubator (New Brunswick Scientific, Enfield, CT, USA) at 30 °C and 200 rpm. Then, the suspensions of the daily culture of V. aquamarinus DSM 26054 and A. calcoaceticus VKPM B-10353 were diluted with LB medium supplemented with 3% NaCl to the density of 1 × 10^8 cells/mL.
(§11) The resulting suspension (180 μL) was added to the wells of a polystyrene microplate (Nuova Aptaca, Canelli, Italy). To some of the wells, 20 μL of the test substances at various concentrations were added. Since solvents used could also influence the biofilm formation, 20 μL of the appropriate solvent was added to the other part of the wells at same dilutions (control). Six replicates were done for each treatment and control. The microplate was covered with a lid and wrapped with Parafilm (Bemis Company, Inc., Oshkosh, WI, USA).
(§12) After incubation at 25 °C for 72 h, biofilms were stained. The contents in the wells were removed by means of a dispenser. The wells were then carefully washed three times with 250 μL of sterile saline. The microplates were shaken to remove all non-adherent bacteria. Biofilms were fixed with 200 μL of 96% ethanol for 15 min. After the microplates had dried in air, 200 μL of 0.5% crystal violet was introduced into the wells. After 10 min, the dye was removed. The excess dye was removed by washing with water three times. After the microplates were air-dried, the dye in the wells bound to biofilms was dissolved with 200 μL of 96% ethanol. The extraction level (absorption) of crystal violet by ethanol was measured after 60 minutes at a wavelength of 570 nm using a FLUOstar Omega microplate reader (BMG Labtech, Offenburg, Germany) in optical density units (OD570). The intensity of biofilm formation directly corresponds to the intensity of staining of the contents of the wells with the dye. Biofilm formation was determined by the difference between the mean OD readings obtained in the presence of compounds and the control.
(§13) Each experiment was performed in triplicate. The values were expressed as mean + SD. Student’s t-test was used to compare these values. Differences were considered statistically significant at p < 0.05.

[5] = tested on: Vibrio aquamarinus DSM 26054; experiment: Biofilm formation, crystal violet assay; type: cell-based; conditions: V. aquamarinus DSM 26054, control = 100%
Procedure: as §7, §2, §8, §9, §10, §11, §12, §13

[6] = 18 mg/kg/day i.p., days 1, 5, 9
[7] = 26 mg/kg/day i.p., days 1, 5, 9
[8] = 40 mg/kg/day i.p., days 1, 5, 9
[9] = 83 mg/kg/day i.p., days 1, 5, 9

## CN(C)CCNC(=O)N1CCCC1c1ccc(Nc2c([N+](=O)[O-])c(Cl)cc3c2no[n+]3[O-])cc1O.O=C(O)C(F)(F)F (centres unmarked) [6h, 6-Chloro-4-((4-(1-((2-(dimethylammonio)ethyl)carbamoyl)pyrrolidin-2-yl)-3-hydroxyphenyl)amino)-5-nitrobenzo[c][1,2,5]oxadiazole 1-oxide 2,2,2-trifluoroacetate]
M-Hela; M-HeLa
  IC50: 100 ± 8.6 µM
Chang liver cell line
  IC50: > 100 µM
P388 murine leukemia; [6]
  ILS: 37%
  MST ± SD: 13.8 ± 0.6 days
P388 murine leukemia; 18 mg/kg/day
  Survival: 0%
  Survivors/Total: 0/6
P388 murine leukemia; [7]
  ILS: 34%
  MST ± SD: 13.5 ± 0.5 days
P388 murine leukemia; 26 mg/kg/day
  Survival: 0%
  Survivors/Total: 0/6
P388 murine leukemia; [8]
  ILS: 27%
  MST ± SD: 12.8 ± 0.7 days
P388 murine leukemia; 40 mg/kg/day
  Survival: 0%
  Survivors/Total: 0/6
P388 murine leukemia; 55 mg/kg/day i.p., days 1, 5, 9
  ILS: 39%
P388 murine leukemia; 55 mg/kg/day
  Survival: 0%
  Survivors/Total: 0/6
P388 murine leukemia; [9]
  ILS: 11%
  MST ± SD: 11.2 ± 1.6 days
P388 murine leukemia; 83 mg/kg/day
  Survival: 0%
  Survivors/Total: 0/6
P388 murine leukemia; P388, dose range 18–83 mg/kg/day i.p., days 1, 5, 9
  antitumor (anti-leukemic) activity, in words: did not show antitumor properties
[1]
  solubility in water, in words: water-soluble

## O=C(Nc1ccc(Br)cc1)N1CCCC1c1ccc(Nc2c([N+](=O)[O-])c(Cl)cc3c2no[n+]3[O-])cc1O (centres unmarked) [6d, 4-((4-(1-((4-Bromophenyl)carbamoyl)pyrrolidin-2-yl)-3-hydroxyphenyl)amino)-6-chloro-5-nitrobenzo[c][1,2,5]oxadiazole 1-oxide]
M-Hela; M-Hela, tested at 1–100 µM, three independent experiments
  IC50: 25.5 ± 1.6 µM
[2]; 10^−9–10^−5 M, with and without S9
  DNA-damaging property, in words: do not belong to the class of DNA-damaging substances
[2]; with metabolic activation (+S9), 10^−5 M
  Genotoxicity (induction factor, I): 0.66 ± 0.04
[2]; with metabolic activation (+S9), 10^−6 M
  Genotoxicity (induction factor, I): 0.71 ± 0.03
[2]; with metabolic activation (+S9), 10^−7 M
  Genotoxicity (induction factor, I): 0.71 ± 0.05
[2]; with metabolic activation (+S9), 10^−8 M
  Genotoxicity (induction factor, I): 0.79 ± 0.03
[2]; with metabolic activation (+S9), 10^−9 M
  Genotoxicity (induction factor, I): 0.76 ± 0.05
[2]; without metabolic activation (-S9), 10^−5 M
  Genotoxicity (induction factor, I): 0.60 ± 0.02
[2]; without metabolic activation (-S9), 10^−6 M
  Genotoxicity (induction factor, I): 0.70 ± 0.01
[2]; without metabolic activation (-S9), 10^−7 M
  Genotoxicity (induction factor, I): 0.62 ± 0.03
[2]; without metabolic activation (-S9), 10^−8 M
  Genotoxicity (induction factor, I): 0.70 ± 0.01
[2]; without metabolic activation (-S9), 10^−9 M
  Genotoxicity (induction factor, I): 0.64 ± 0.03
[3]; 10^−5 M
  Prooxidant activity (induction factor): 1.10 ± 0.07
[3]; 10^−6 M
  Prooxidant activity (induction factor): 1.60 ± 0.23
  prooxidant response, in words: weak response
[3]; 10^−7 M
  Prooxidant activity (induction factor): 1.11 ± 0.01
[3]; 10^−8 M
  Prooxidant activity (induction factor): 1.11 ± 0.07
[3]; 10^−9 M
  Prooxidant activity (induction factor): 1.34 ± 0.09
other
  melting point: 166 to 170 °C (dec.)
Chang liver cell line; tested at 1–100 µM, three independent experiments
  IC50: 53 ± 3.8 µM
[4]; 1 × 10^−5 M
  Biofilm Formation: 89.50%
[4]; 1 × 10^−6 M
  Biofilm Formation: 95.71%
[4]; 1 × 10^−7 M
  Biofilm Formation: 50.00 * %
[4]; 1 × 10^−8 M
  Biofilm Formation: 46.95% and 46.95 * %
[4]; 1 × 10^−9 M
  Biofilm Formation: 79.16 * %
[5]; 1 × 10^−5 M
  Biofilm Formation: 63.12%
[5]; 1 × 10^−6 M
  Biofilm Formation: 24.11 * %
[5]; 1 × 10^−7 M
  Biofilm Formation: 10.70 * %
[5]; 1 × 10^−8 M
  Biofilm Formation: 6.46% and 6.46 * %
[5]; 1 × 10^−9 M
  Biofilm Formation: 67.29 * %
